25 compounds from patent publication US20240092784A1, “CONDENSED HETEROCYCLIC COMPOUND” (NISSAN CHEMICAL CORPORATION, priority 2020, published 2024) can be followed below.

human SPR, sequence (P35270 whole entry): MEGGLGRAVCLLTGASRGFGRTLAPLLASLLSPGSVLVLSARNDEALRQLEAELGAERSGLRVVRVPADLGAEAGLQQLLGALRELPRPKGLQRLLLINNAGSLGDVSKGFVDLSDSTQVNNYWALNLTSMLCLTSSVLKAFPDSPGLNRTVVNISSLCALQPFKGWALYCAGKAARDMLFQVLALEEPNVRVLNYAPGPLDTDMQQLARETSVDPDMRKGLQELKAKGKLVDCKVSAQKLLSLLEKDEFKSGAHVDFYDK

The first experiment deals with human SPR (Homo sapiens (Human), UniProt P35270). The experiment in a line: Evaluation Example 2: Measurement of human SPR inhibitory activity (seven concentrations, sepiapterin absorbance at 420 nm). It is filed as biochemical. The conditions noted are these: Evaluation Example 2, seven concentrations 0.14 nM to 100 nM, 240 minutes at room temperature, read-out: IC50. The essentials:
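His-tagged full-length human SPR (1-261) was expressed in E. coli and the tag removed. Enzyme at 150 ng/mL in 100 mM Tris-HCl pH 7.5/0.01% BSA was mixed with compound (0.14–100 nM, seven points), 120 μM sepiapterin and 160 μM NADPH, both as added-solution concentrations. After 240 min at room temperature, remaining sepiapterin was read at 420 nm to give percent inhibition.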
For `COC[C@H]1CCN(C(=O)/C=C/c2c(C)nn3c(O)c(C(=O)NC4CC4)c(=O)n(CC(C)C)c23)C1` [Synthesis Example 620, (S,E)-N-Cyclopropyl-7-hydroxy-4-isobutyl-3-(3-(3-(methoxymethyl)pyrrolidin-1-yl)-3-oxoprop-1-en-1-yl)-2-methyl-5-oxo-4,5-dihydropyrazolo[1,5-a]pyrimidine-6-carboxamide], the IC50 came out at 1.17 nM.

In the case of `Cc1nn2c(O)c(C(=O)NC3CC3)c(=O)n(CC(C)(C)C)c2c1/C=C/C(=O)N1CCOCC1` [compound 582, (E)-N-Cyclopropyl-7-hydroxy-2-methyl-3-(3-morpholino-3-oxoprop-1-en-1-yl)-4-neopentyl-5-oxo-4,5-dihydropyrazolo[1,5-a]pyrimidine-6-carboxamide], the IC50 worked out at 0.63 nM.

As for `CC(C)(C)Cn1c(=O)c(C(=O)NC2CC2)c(O)n2nc(Nc3cnc(C(C)(F)F)cn3)cc12` [Synthesis Example 344, N-Cyclopropyl-2-((5-(1,1-difluoroethyl)pyrazin-2-yl)amino)-7-hydroxy-4-neopentyl-5-oxo-4,5-dihydropyrazolo[1,5-a]pyrimidine-6-carboxamide], the IC50 stood at 1.69 nM.

`CC(C)Cn1c(=O)c(C(=O)NC2CC2)c(O)n2ncc(/C=C/C(=O)N3CCO[C@@H](C(F)(F)F)C3)c12` [compound 529, (R,E)-N-Cyclopropyl-7-hydroxy-4-isobutyl-5-oxo-3-(3-oxo-3-(2-(trifluoromethyl)morpholino)prop-1-en-1-yl)-4,5-dihydropyrazolo[1,5-a]pyrimidine-6-carboxamide]: the IC50 was 1.03 nM.

As to `Cc1nn2c(O)c(C(=O)NC3CC3)c(=O)n(CC(C)C)c2c1/C=C/C(=O)N1CC[C@H](F)C1` [compound 566, (S,E)-N-Cyclopropyl-3-(3-(3-fluoropyrrolidin-1-yl)-3-oxoprop-1-en-1-yl)-7-hydroxy-4-isobutyl-2-methyl-5-oxo-4,5-dihydropyrazolo[1,5-a]pyrimidine-6-carboxamide], the IC50 was determined as 0.94 nM.

As to `CNc1nn2c(O)c(C(=O)NC3CC3)c(=O)n(CC(C)C)c2c1/C=C/C(=O)N1CC2CCC(C1)O2` [Synthesis Example 431, (E)-3-(3-(8-Oxa-3-azabicyclo[3.2.1]octan-3-yl)-3-oxoprop-1-en-1-yl)-N-cyclopropyl-7-hydroxy-4-isobutyl-2-(methylamino)-5-oxo-4,5-dihydropyrazolo[1,5-a]pyrimidine-6-carboxamide], the IC50 turned out to be 0.81 nM.

Consider `CC(C)Cn1c(=O)c(C(=O)NC2CC2)c(O)n2ncc(/C=C/C(=O)N3CC4CCC(C3)O4)c12` [compound 456, (E)-3-(3-(8-Oxa-3-azabicyclo[3.2.1]octan-3-yl)-3-oxoprop-1-en-1-yl)-N-cyclopropyl-7-hydroxy-4-isobutyl-5-oxo-4,5-dihydropyrazolo[1,5-a]pyrimidine-6-carboxamide], for which the IC50 amounted to 0.58 nM.

Regarding `CC(C)Cn1c(=O)c(C(=O)NC2CC2)c(O)n2ncc(C(=O)NCC3CCOCC3)c12` [Synthesis Example 221, N6-Cyclopropyl-7-hydroxy-4-isobutyl-5-oxo-N3-((tetrahydro-2H-pyran-4-yl)methyl)-4,5-dihydropyrazolo[1,5-a]pyrimidine-3,6-dicarboxamide], the IC50 came to 0.64 nM.

Take `Cc1nn2c(O)c(C(=O)NC3CC3)c(=O)n(CC(C)C)c2c1/C=C/C(=O)N1CCCC12CCN(C)CC2` [Synthesis Example 664, (E)-N-Cyclopropyl-7-hydroxy-4-isobutyl-2-methyl-3-(3-(8-methyl-1,8-diazaspiro[4.5]decan-1-yl)-3-oxoprop-1-en-1-yl)-5-oxo-4,5-dihydropyrazolo[1,5-a]pyrimidine-6-carboxamide]: the IC50 was determined as 0.77 nM.

Consider `CC(C)(C)Cn1c(=O)c(C(=O)NC2CC2)c(O)n2nc(NC3CCCCC3)cc12` [Synthesis Example 343, 2-(Cyclohexylamino)-N-cyclopropyl-7-hydroxy-4-neopentyl-5-oxo-4,5-dihydropyrazolo[1,5-a]pyrimidine-6-carboxamide], for which the IC50 stood at 4.71 nM.

In the case of `O=C(NC1CC1)c1c(O)n2ncc(/C=C/C(=O)N3C[C@H]4C[C@@H]3CO4)c2n(CC2(F)CC2)c1=O` [Synthesis Example 377], the IC50 stood at 0.78 nM.

Turning to `Cc1cncc(Nc2cc3n(CC(C)(C)C)c(=O)c(C(=O)NC4CC4)c(O)n3n2)n1` [Synthesis Example 330, N-Cyclopropyl-7-hydroxy-2-((6-methylpyrazin-2-yl)amino)-4-neopentyl-5-oxo-4,5-dihydropyrazolo[1,5-a]pyrimidine-6-carboxamide], the IC50 came out at 1.83 nM.

Regarding `CC(C)(C)Cn1c(=O)c(C(=O)NC2CC2)c(O)n2nc(-c3[nH]ncc3Cl)cc12` [Synthesis Example 305, 2-(4-Chloro-1H-pyrazol-5-yl)-N-cyclopropyl-7-hydroxy-4-neopentyl-5-oxo-4,5-dihydropyrazolo[1,5-a]pyrimidine-6-carboxamide], the IC50 amounted to 2.24 nM.

Turning to `C[C@@H]1COCCN1C(=O)/C=C/c1cnn2c(O)c(C(=O)NC3CC3)c(=O)n(CC3(C)CC3)c12` [Synthesis Example 370, (R,E)-N-Cyclopropyl-7-hydroxy-4-((1-methylcyclopropyl)methyl)-3-(3-(3-methylmorpholino)-3-oxoprop-1-en-1-yl)-5-oxo-4,5-dihydropyrazolo[1,5-a]pyrimidine-6-carboxamide], the IC50 is 0.54 nM.

For `CC(C)Cn1c(=O)c(C(=O)NC2CC2)c(O)n2ncc(/C=C/C(=O)N3CCC(C(C)(C)O)CC3)c12` [compound 474, (E)-N-Cyclopropyl-7-hydroxy-3-(3-(4-(2-hydroxypropan-2-yl)piperidin-1-yl)-3-oxoprop-1-en-1-yl)-4-isobutyl-5-oxo-4,5-dihydropyrazolo[1,5-a]pyrimidine-6-carboxamide], the IC50 came to 0.88 nM.

With `COC(=O)Nc1nn2c(O)c(C(=O)NC3CC3)c(=O)n(CC(C)C)c2c1/C=C/C(=O)N1CCOCC1` [Synthesis Example 425, Methyl (E)-(6-(cyclopropylcarbamoyl)-7-hydroxy-4-isobutyl-3-(3-morpholino-3-oxoprop-1-en-1-yl)-5-oxo-4,5-dihydropyrazolo[1,5-a]pyrimidin-2-yl)carbamate], the IC50 turned out to be 0.77 nM.

Turning to `CC(C)Cn1c(=O)c(C(=O)NC2CC2)c(O)n2ncc(C#N)c12` [Synthesis Example 261, 3-Cyano-N-cyclopropyl-7-hydroxy-4-isobutyl-5-oxo-4,5-dihydropyrazolo[1,5-a]pyrimidine-6-carboxamide], the IC50 was determined as 2.27 nM.

On to `CC(C)Cn1c(=O)c(C(=O)NC2CC2)c(O)n2ncc(/C=C/C(=O)N3CCC[C@H]3C)c12` [compound 536, (R,E)-N-Cyclopropyl-7-hydroxy-4-isobutyl-3-(3-(2-methylpyrrolidine-1-yl)-3-oxoprop-1-en-1-yl)-5-oxo-4,5-dihydropyrazolo[1,5-a]pyrimidine-6-carboxamide], for which the IC50 worked out at 0.92 nM.

On to `COC[C@H]1COCCN1C(=O)/C=C/c1cnn2c(O)c(C(=O)NC3CC3)c(=O)n(CC(C)C)c12` [compound 531, (S,E)-N-Cyclopropyl-7-hydroxy-4-isobutyl-3-(3-(3-(methoxymethyl)morpholino)-3-oxoprop-1-en-1-yl)-5-oxo-4,5-dihydropyrazolo[1,5-a]pyrimidine-6-carboxamide], for which the IC50 was determined as 0.73 nM.

In the case of `COC[C@H]1CCCN1C(=O)/C=C/c1c(C)nn2c(O)c(C(=O)NC3CC3)c(=O)n(CC(C)C)c12` [Synthesis Example 612, (R,E)-N-Cyclopropyl-7-hydroxy-4-isobutyl-3-(3-(2-(methoxymethyl)pyrrolidin-1-yl)-3-oxoprop-1-en-1-yl)-2-methyl-5-oxo-4,5-dihydropyrazolo[1,5-a]pyrimidine-6-carboxamide], the IC50 stood at 1.23 nM.

The same experiment, now with this note: sepiapterin absorbance, Table 41, read-out: concentration at 50% inhibition of human SPR (IC50).
Turning to `CC(=O)N1CCC2(CCCN2C(=O)/C=C/c2cnn3c(O)c(C(=O)NC4CC4)c(=O)n(CC(C)C)c23)CC1` [Synthesis Example 737, (E)-3-(3-(8-Acetyl-1,8-diazaspiro[4.5]decan-1-yl)-3-oxoprop-1-en-1-yl)-N-cyclopropyl-7-hydroxy-4-isobutyl-5-oxo-4,5-dihydropyrazolo[1,5-a]pyrimidine-6-carboxamide], the IC50 stood at 1.9 nM.

For the compound `Cc1nn2c(O)c(C(=O)NC3CC3)c(=O)n(CC(C)C)c2c1/C=C/C(=O)N1CCN(CC2CC(F)(F)C2)C[C@H]1C` [Synthesis Example 704, (R,E)-N-Cyclopropyl-3-(3-(4-((3,3-difluorocyclobutyl)methyl)-2-methylpiperazin-1-yl)-3-oxoprop-1-en-1-yl)-7-hydroxy-4-isobutyl-2-methyl-5-oxo-4,5-dihydropyrazolo[1,5-a]pyrimidine-6-carboxamide], the IC50 is 1.52 nM.

`COC[C@H]1COCCN1C(=O)/C=C/c1c(C)nn2c(O)c(C(=O)NC3CC3)c(=O)n(CC(C)(C)C)c12` [Synthesis Example 694, (S,E)-N-Cyclopropyl-7-hydroxy-3-(3-(3-(methoxymethyl)morpholino)-3-oxoprop-1-en-1-yl)-2-methyl-4-neopentyl-5-oxo-4,5-dihydropyrazolo[1,5-a]pyrimidine-6-carboxamide]: the IC50 was determined as 0.85 nM.

`Cc1nn2c(O)c(C(=O)NC3CC3)c(=O)n(CC(C)C)c2c1/C=C/C(=O)N1CCOCC12CC2` [Synthesis Example 706, (E)-N-Cyclopropyl-7-hydroxy-4-isobutyl-2-methyl-5-oxo-3-(3-oxo-3-(7-oxa-4-azaspiro[2.5]octan-4-yl)prop-1-en-1-yl)-4,5-dihydropyrazolo[1,5-a]pyrimidine-6-carboxamide]: the IC50 amounted to 0.82 nM.

Take `CC(C)Cn1c(=O)c(C(=O)NC2CC2)c(O)n2ncc(/C=C/C(=O)N3CC(C#N)C3)c12` [Synthesis Example 734, (E)-3-(3-(3-Cyanoazetidin-1-yl)-3-oxoprop-1-en-1-yl)-N-cyclopropyl-7-hydroxy-4-isobutyl-5-oxo-4,5-dihydropyrazolo[1,5-a]pyrimidine-6-carboxamide]: the IC50 came out at 0.73 nM.
